Results on four molecules are retold here after ChEMBL document CHEMBL4118048, “Characterization of the Polymyxin D Synthetase Biosynthetic Cluster and Product Profile of Paenibacillus polymyxa ATCC 10401” (2017).

Molecules are shown by their SMILES. ≈ marks a conversion by molar mass, not a printed value. Calls of active or inactive are those of the source. The calls are words filed in the database; no cut-off is given here. Where a SMILES comes first, the peptide text is derived from it. Bridges are numbered along the chain shown (N, C = ends). [ ]: non-standard residue; d: D form. The star is where a group is joined. Heptanoyl(6-Me) = CC(C)CCCCC(=O)*; X1 = CC[C@H](C)CCCCC(=O)*; Dab = NCC[C@H](N)C(=O)O

For orientation: MIC means the least concentration at which growth counts as inhibited. High values mean a less susceptible organism, low ones a more susceptible organism.

Experiment [1] has as its system Pseudomonas aeruginosa. Description: Antibacterial activity against Pseudomonas aeruginosa ATCC 27853 after 18 hrs by broth microdilution method. The class given is functional. Particulars: ATCC 27853, 18 h.
The subject of experiment [2] is Acinetobacter baumannii. Description: Antibacterial activity against Acinetobacter baumannii ATCC 19606 after 18 hrs by broth microdilution method. The class given is functional. As to conditions: ATCC 19606 = CIP 70.34 = JCM 6841, 18 h. (In general: Broth dilution looks for growth in wells or tubes with falling amounts of substance.)
Experiment [3] has as its system Klebsiella pneumoniae. Description: Antibacterial activity against Klebsiella pneumoniae isolate FADDI-KP032 after 18 hrs by broth microdilution method. The class given is functional. Particulars: isolate FADDI-KP032, 18 h.
Experiment [4] relates to Acinetobacter baumannii. Description: Antibacterial activity against Acinetobacter baumannii ATCC 19606 infected in mouse assessed as reduction in bacterial count in blood at 4 mg/kg, ip measured after 4 hrs. The class given is functional, organism-based. Particulars: ATCC 19606 = CIP 70.34 = JCM 6841.
For experiment [5], the system named is Klebsiella pneumoniae. Description: Antibacterial activity against Klebsiella pneumoniae isolate FADDI-KP032 infected in mouse assessed as reduction in bacterial count in blood at 4 mg/kg, ip measured after 4 hrs. The class given is functional, organism-based.
Experiment [6] relates to Pseudomonas aeruginosa. Description: Antibacterial activity against Pseudomonas aeruginosa ATCC 27853 infected in mouse assessed as reduction in bacterial count in blood at 4 mg/kg, ip measured after 4 hrs. The experiment is classed as functional.
The subject of experiment [7] is Escherichia coli. Description: Antibacterial activity against Escherichia coli isolate FADDI-EC003 after 18 hrs by broth microdilution method. The experiment is classed as functional. Particulars: isolate FADDI-EC003, 18 h.
Experiment [8] concerns Acinetobacter baumannii. Kind of experiment: Antibacterial activity against Acinetobacter baumannii ATCC 17978 after 18 hrs by broth microdilution method. The experiment is classed as functional. As to conditions: ATCC 17978, 18 h.
The test system of experiment [9] is Escherichia coli. Description: Antibacterial activity against Escherichia coli isolate FADDI-EC006 after 18 hrs by broth microdilution method. Particulars: isolate FADDI-EC006, 18 h. The experiment is classed as functional.
The subject of experiment [10] is Klebsiella pneumoniae. Kind of experiment: Antibacterial activity against Klebsiella pneumoniae ATCC 13883 after 18 hrs by broth microdilution method. As to conditions: ATCC 13883, 18 h. The class given is functional.
Experiment [11] relates to Klebsiella pneumoniae. Description: Antibacterial activity against Klebsiella pneumoniae isolate FADDI-KP022 after 18 hrs by broth microdilution method. The experiment is classed as functional. Particulars: isolate FADDI-KP022, 18 h.
Experiment [12] relates to Acinetobacter baumannii. Description: Antibacterial activity against Acinetobacter baumannii isolate FADDI-AB030 after 18 hrs by broth microdilution method. Particulars: isolate FADDI-AB030, 18 h. The class given is functional.
The test system of experiment [13] is Pseudomonas aeruginosa. Kind of experiment: Antibacterial activity against Pseudomonas aeruginosa isolate FADDI-PA022 after 18 hrs by broth microdilution method. The experiment is classed as functional. As to conditions: isolate FADDI-PA022, 18 h.
Experiment [14] deals with Klebsiella pneumoniae. Description: Antibacterial activity against Klebsiella pneumoniae ATCC 700721 after 18 hrs by broth microdilution method. The class given is functional. Particulars: ATCC 700721, 18 h.
Experiment [15] concerns Pseudomonas aeruginosa. Description: Antibacterial activity against Pseudomonas aeruginosa isolate FADDI-PA025 after 18 hrs by broth microdilution method. The experiment is classed as functional. Particulars: isolate FADDI-PA025, 18 h.
Experiment [16] has as its system Pseudomonas aeruginosa. Description: Antibacterial activity against Pseudomonas aeruginosa isolate FADDI-PA038 after 18 hrs by broth microdilution method. The class given is functional. Particulars: isolate FADDI-PA038, 18 h.
In experiment [17] the test system is Escherichia coli. Kind of experiment: Antibacterial activity against Escherichia coli isolate FADDI-EC001 after 18 hrs by broth microdilution method. The experiment is classed as functional. As to conditions: isolate FADDI-EC001, 18 h.
The subject of experiment [18] is Klebsiella pneumoniae. Kind of experiment: Antibacterial activity against Klebsiella pneumoniae BM1 after 18 hrs by broth microdilution method. The class given is functional. Particulars: BM1, 18 h.
The test system of experiment [19] is Klebsiella pneumoniae. Kind of experiment: Antibacterial activity against Klebsiella pneumoniae isolate FADDI-KP065 after 18 hrs by broth microdilution method. The experiment is classed as functional. Particulars: isolate FADDI-KP065, 18 h.
The subject of experiment [20] is Pseudomonas aeruginosa. Description: Antibacterial activity against Pseudomonas aeruginosa isolate FADDI-PA001 after 18 hrs by broth microdilution method. The class given is functional. As to conditions: isolate FADDI-PA001, 18 h.
Experiment [21] relates to Acinetobacter baumannii. Kind of experiment: Antibacterial activity against Acinetobacter baumannii isolate FADDI-AB034 after 18 hrs by broth microdilution method. The class given is functional. Particulars: isolate FADDI-AB034, 18 h.

In the case of `CC[C@H](C)CCCCC(=O)N[C@@H](CCN)C(=O)N[C@H](C(=O)N[C@@H](CCN)C(=O)N[C@H]1CCNC(=O)[C@H]([C@@H](C)O)NC(=O)[C@H](CCN)NC(=O)[C@H](CCN)NC(=O)[C@H](CC(C)C)NC(=O)[C@@H](Cc2ccccc2)NC(=O)[C@H](CCN)NC1=O)[C@@H](C)O` (X1-[Dab]T[Dab][Dab][Dab][dF]L[Dab][Dab]T; lactam 4-C), the minimum inhibitory concentration (MIC) in the experiment on Pseudomonas aeruginosa [1], with Acinetobacter baumannii [2] and with Klebsiella pneumoniae [3] was 0.5 µg/mL (≈ 0.415 µM) throughout. The result with Acinetobacter baumannii [4] and with Klebsiella pneumoniae [5] was Active. The “log(activity)” value with Pseudomonas aeruginosa [6] was -2.55.
Regarding `CC[C@H](C)CCCCC(=O)N[C@@H](CCN)C(=O)N[C@H](C(=O)N[C@H](CO)C(=O)N[C@H]1CCNC(=O)[C@H]([C@@H](C)O)NC(=O)[C@H](CCN)NC(=O)[C@H](CCN)NC(=O)[C@H]([C@@H](C)O)NC(=O)[C@@H](CC(C)C)NC(=O)[C@H](CCN)NC1=O)[C@@H](C)O` (X1-[Dab]T[dS][Dab][Dab][dL]T[Dab][Dab]T; lactam 4-C), the MIC against Escherichia coli [7], in the experiment on Pseudomonas aeruginosa [1], in the experiment with Acinetobacter baumannii [8], against Acinetobacter baumannii [2], in the experiment with Escherichia coli [9] and against Klebsiella pneumoniae [10] was 8 to 32 µg/mL (≈ 6.99 to 28 µM) in each case. Further, the MIC in the experiment with Klebsiella pneumoniae [11], in the experiment on Acinetobacter baumannii [12], in the experiment on Pseudomonas aeruginosa [13], against Klebsiella pneumoniae [14], against Klebsiella pneumoniae [3] and against Pseudomonas aeruginosa [15] was 8 to 32 µg/mL (≈ 6.99 to 28 µM) throughout. The minimum inhibitory concentration (MIC) against Pseudomonas aeruginosa [16], in the experiment with Escherichia coli [17], against Klebsiella pneumoniae [18], in the experiment with Klebsiella pneumoniae [19], against Pseudomonas aeruginosa [20] and against Acinetobacter baumannii [21] was 8 to 32 µg/mL (≈ 6.99 to 28 µM) throughout. In addition, the result in the experiment on Acinetobacter baumannii [4] and in the experiment on Klebsiella pneumoniae [5] was Active. Further, the outcome in the experiment with Pseudomonas aeruginosa [6] was inactive.
On to `CC(C)CCCCC(=O)N[C@@H](CCN)C(=O)N[C@H](C(=O)N[C@H](CO)C(=O)N[C@H]1CCNC(=O)[C@H]([C@@H](C)O)NC(=O)[C@H](CCN)NC(=O)[C@H](CCN)NC(=O)[C@H]([C@@H](C)O)NC(=O)[C@@H](CC(C)C)NC(=O)[C@H](CCN)NC1=O)[C@@H](C)O` ({Heptanoyl(6-Me)}-[Dab]T[dS][Dab][Dab][dL]T[Dab][Dab]T; lactam 4-C), for which the MIC with Escherichia coli [7], against Pseudomonas aeruginosa [1], in the experiment with Acinetobacter baumannii [8], against Acinetobacter baumannii [2], in the experiment with Escherichia coli [9] and with Klebsiella pneumoniae [10] was 8 to 32 µg/mL (≈ 7.08 to 28.3 µM) each time. Also, the minimal inhibitory concentration (MIC) against Klebsiella pneumoniae [11], against Acinetobacter baumannii [12], in the experiment with Pseudomonas aeruginosa [13], against Klebsiella pneumoniae [14], in the experiment with Klebsiella pneumoniae [3] and in the experiment on Pseudomonas aeruginosa [15] was 8 to 32 µg/mL (≈ 7.08 to 28.3 µM) each time. Moreover, the MIC against Pseudomonas aeruginosa [16], against Escherichia coli [17], against Klebsiella pneumoniae [18], in the experiment on Klebsiella pneumoniae [19], in the experiment on Pseudomonas aeruginosa [20] and against Acinetobacter baumannii [21] was 8 to 32 µg/mL (≈ 7.08 to 28.3 µM) throughout. The outcome in the experiment on Acinetobacter baumannii [4] and in the experiment on Klebsiella pneumoniae [5] was Active. The outcome with Pseudomonas aeruginosa [6] was inactive.
For `CC(C)CCCCC(=O)N[C@@H](CCN)C(=O)N[C@H](C(=O)N[C@@H](CCN)C(=O)N[C@H]1CCNC(=O)[C@H]([C@@H](C)O)NC(=O)[C@H](CCN)NC(=O)[C@H](CCN)NC(=O)[C@H](CC(C)C)NC(=O)[C@@H](Cc2ccccc2)NC(=O)[C@H](CCN)NC1=O)[C@@H](C)O` [POLYMYXIN B2] ({Heptanoyl(6-Me)}-[Dab]T[Dab][Dab][Dab][dF]L[Dab][Dab]T; lactam 4-C), the MIC with Pseudomonas aeruginosa [1], in the experiment with Acinetobacter baumannii [2] and with Klebsiella pneumoniae [3] was 0.5 µg/mL (≈ 0.42 µM) throughout. The outcome in the experiment on Acinetobacter baumannii [4] and in the experiment with Klebsiella pneumoniae [5] was Active. In addition, the “log(activity)” value with Pseudomonas aeruginosa [6] is reported as -2.55.
